The results in this text go back to patent US9314025B2, “Mixtures of mesoionic pesticides” (E I DU PONT DE NEMOURS AND COMPANY, priority 2009, dated 2016).

Common to all, as to assay type: in vivo
Data set [1] relates to green peach aphid (Myzus persicae). Conditions: for Percent Mortality, Observed, Cmpd A: in vivo. From the text:
(§1) The presence of a synergistic effect between two active ingredients can be established with the aid of the Colby equation (see Colby, S. R., “Calculating Synergistic and Antagonistic Responses of Herbicide Combinations”, Weeds 1967, 15, 20-22):
(§2) Using the method of Colby, the presence of a synergistic interaction between two active ingredients is established by first calculating the predicted activity, p, of the mixture based on activities of the two components applied alone. In the equation above, A is the biological activity in percentage control of one component applied alone at rate x. The B term is the biological activity in percentage control of the second component applied at rate y. The equation calculates p, the predicted biological activity of the mixture of A at rate x with B at rate y if their effects are strictly additive and no interaction has occurred. If the experimentally established effect of the mixture is greater than the predicted activity, p, synergism is present. To use the Colby equation the active ingredients of the mixture are applied in a test separately as well as in combination.
(§3) Test compounds and compositions were formulated using a solution containing 10% acetone, 90% water and 300 ppm X-77® Spreader Lo-Foam Formula non-ionic surfactant containing alkylarylpolyoxyethylene, free fatty acids, glycols and isopropanol (Loveland Industries, Inc. Greeley, Colo., USA). The formulated compounds or compositions were applied in 1 mL of liquid through a SUJ2 atomizer nozzle with 1/8 JJ custom body (Spraying Systems Co. Wheaton, Ill., USA) positioned 1.27 cm (0.5 inches) above the top of each test unit. Tests were replicated three times. After spraying of the formulated test compound or compositions, each test unit was allowed to dry for 1 h and then a black, screened cap was placed on top. The test units were held for 6 days in a growth chamber at 25° C. and 70% relative humidity. Plant feeding damage was then visually assessed based on foliage consumed.
For evaluating control of green peach aphid (Myzus persicae) through contact and/or systemic means, the test unit consisted of a small open container with a 12-15-day-old radish plant inside. This was pre-infested by placing on a leaf of the test plant 30-40 aphids on a piece of leaf excised from a culture plant (cut-leaf method). The aphids moved onto the test plant as the leaf piece desiccated. After pre-infestation, the soil of the test unit was covered with a layer of sand.
Test compounds and compositions were formulated and sprayed as described for Test A. The applications were replicated three times. After spraying of the formulated test compound or composition, each test unit was allowed to dry for 1 h and then a black, screened cap was placed on top. The test units were held for 6 days in a growth chamber at 19-21° C. and 50-70% relative humidity. Each test unit was then visually assessed for insect mortality.
The results calculated as mean averages of results from the three replicates are listed in Table B. Compound 123 was applied at a rate of 50 ppm. Compound 8 was applied at a rate of 250 ppm.

In data set [2] the test system is corn planthopper (Peregrinus maidis). Conditions: for Percent Mortality, Observed, Cmpd A: in vivo.
Excerpt: as §1, §2, §3
For evaluating control of corn planthopper (Peregrinus maidis) through contact and/or systemic means, the test unit consisted of a small open container with a 3-4-day-old maize plant (spike) inside. White sand was added to the top of the soil prior to application. Test compounds and compositions were formulated, sprayed, and replicated three times as described for Test A. After spraying, the test units were allowed to dry for 1 h before they were post-infested with ˜15-20 nymphs (18 to 21 day old) by sprinkling them onto the sand with a salt shaker. A black, screened cap was placed on the top of the cylinder. The test units were held for 6 days in a growth chamber at 22-24° C. and 50-70% relative humidity. Each test unit was then visually assessed for insect mortality.
Compound 123 was applied at a rate of 2.5 ppm. Compound 8 was applied at a rate of 0.2 ppm.

Data set [3] relates to diamondback moth (Plutella xylostella). Put plainly: Test A: control of diamondback moth on radish plant, foliar spray, plant feeding damage assessed visually. To be noted: for Plant Protection, Observed, Cmpd A: in vivo.
Excerpt: as §1, §2
For evaluating control of diamondback moth (Plutella xylostella) the test unit consisted of a small open container with a 12-14-day-old radish plant inside. This was pre-infested with ˜50 neonate larvae that were dispensed into the test unit via corn cob grits using a bazooka inoculator. The larvae moved onto the test plant after being dispensed into the test unit.
as §3
Compound 8 was applied at a rate of 20 ppm.

The test system of data set [4] is Western Flower Thrip (Frankliniellla occidentalis). The data set is described as follows: Test D: control of Western Flower Thrip on Soleil bean plant through contact and/or systemic means, plant protection. To be noted: for Plant Protection, Observed, Cmpd A: in vivo.
Excerpt: as §1, §2, §3
For evaluating control of the Western Flower Thrip (Frankliniellla occidentalis) through contact and/or systemic means, the test unit consisted of a small open container with a 5-7-day-old Soleil bean plant inside.
Test compounds and compositions were formulated, sprayed, and replicated three times as described for Test A. After spraying, the test units were allowed to dry for 1 hour and then 22-27 adult thrips were added to the unit and then a black, screened cap was placed on top. The test units were held for 7 days at 25° C. and 45-55% relative humidity.
Compound 8 was applied at a rate of 250 ppm.

Values joined by “and” are separate entries in the source; they are usually repeats but may differ in a detail not shown here. Equal entries are not always repeated.

Consider `CC1(C)[C@H](C(=O)O[C@H](C#N)c2cccc(Oc3ccccc3)c2)[C@@H]1/C=C(\Cl)C(F)(F)F` (racemic) [lambda-cyhalothrin], for which the “Percent Mortality, Observed, Cmpd A” value in data set [1] was determined as 39%; in data set [2], 45%.
On to `COc1ccc(C(F)(F)F)cc1-c1c([O-])[n+](Cc2ccc(F)nc2)c2ccccn2c1=O` [Compound 8], for which the “Percent Mortality, Observed, Cmpd 8” value was 25% and 13% and 10% and 15% in data set [1] (Cmpd 8 alone at 250 ppm, spray, 6 days, mean of 3 replicates); 38% and 71% and 8% and 55% and 76% in data set [2] (Cmpd 8 alone at 0.2 ppm, spray, 6 days, mean of 3 replicates). Besides, the “Plant Protection, Observed, Cmpd 8” value in data set [3] (Cmpd 8 alone at 20 ppm, foliar spray, 6 days, (0 to 10 rating) × 10, mean of 3 replicates) is 13 (5×) and 0 (11×) and 40 (6×) and 17 (6×); in data set [4] (Cmpd 8 alone at 250 ppm, spray, 7 days, (0 to 10 rating) × 10, mean of 3 replicates), 53 (5×) and 37 (5×) and 50 (6×) and 10 (6×) and 30 (6×).
Turning to `O=c1c(-c2cc(OC(F)(F)F)cc(-c3ccc(F)nc3)c2)c([O-])[n+](Cc2cnc(Cl)s2)c2ccccn12` [Compound 123], the “Percent Mortality, Observed, Cmpd 123” value in data set [1] (Cmpd 123 alone at 50 ppm, spray, 6 days, mean of 3 replicates) is 15% and 18% and 22% and 9% and 66%; in data set [2] (Cmpd 123 alone at 2.5 ppm, spray, 6 days, mean of 3 replicates), 28% and 21% and 8% and 42% and 68%. Also, the “Plant Protection, Observed, Cmpd 123” value is 33 (5×) and 17 (11×) and 97 (6×) and 80 (6×) in data set [3] (Cmpd 123 alone at 0.1 ppm, foliar spray, 6 days, (0 to 10 rating) × 10, mean of 3 replicates); 23 (5×) and 30 (5×) and 33 (6×) and 3 (6×) and 40 (6×) in data set [4] (Cmpd 123 alone at 25 ppm, spray, 7 days, (0 to 10 rating) × 10, mean of 3 replicates).
For the molecule `C/C(=N\C#N)N(C)Cc1ccc(Cl)nc1` [acetamiprid], the “Percent Mortality, Observed, Cmpd A” value in data set [1] is 9%; in data set [2] it was 32%.
Taken in the same sequence, the figures for `CC(C)N1C(=O)N(c2ccccc2)CS/C1=N\C(C)(C)C` [buprofezin] were 14% and 44%.
Taken in the same sequence, the figures for `CN(C)C(CSC(N)=O)CSC(N)=O` [cartap] were 15% and 40%.
Taken in the same sequence, the figures for `CNC(=O)c1cc(Cl)cc(C)c1NC(=O)c1cc(Br)nn1-c1ncccc1Cl` [chlorantraniliprole] were 11% and 33%.
In the case of `CCOCn1c(-c2ccc(Cl)cc2)c(C#N)c(Br)c1C(F)(F)F` [chlorfenapyr], the results for the “Percent Mortality, Observed, Cmpd A” value in data set [1] and in data set [2] were 54% and 81%, respectively.
Taken in the same sequence, the figures for `CCOP(=S)(OCC)Oc1nc(Cl)c(Cl)cc1Cl` [chlorpyrifos] were 18% and 48%.
In the case of `CN/C(=N\[N+](=O)[O-])NCc1cnc(Cl)s1` [clothianidin], the figures for the “Percent Mortality, Observed, Cmpd A” value in data set [1] and in data set [2] were 16% and 35%, respectively.
In the case of `CNC(=O)c1cc(C#N)cc(C)c1NC(=O)c1cc(Br)nn1-c1ncccc1Cl` [cyantraniliprole], the results for the “Percent Mortality, Observed, Cmpd A” value in data set [1] and in data set [2] were 10% and 67%, respectively.
Taken in the same sequence, the figures for `CN/C(=N/CC1CCOC1)N[N+](=O)[O-]` (centres unmarked) [dinotefuran] were 33% and 42%.
The corresponding values for `N#Cc1nn(-c2c(Cl)cc(C(F)(F)F)cc2Cl)c(N)c1[S+]([O-])C(F)(F)F` (centres unmarked) [fipronil] are 87% and 21%.
For `N#CCNC(=O)c1cnccc1C(F)(F)F` [flonicamid], the “Percent Mortality, Observed, Cmpd A” value is 14% in data set [1] and 70% in data set [2]. Besides, the “Plant Protection, Observed, Cmpd A” value in data set [3] was determined as 10; in data set [4], 60.
On to `Cc1cc(C(F)(C(F)(F)F)C(F)(F)F)ccc1NC(=O)c1cccc(I)c1C(=O)NC(C)(C)CS(C)(=O)=O` [flubendiamide], for which the “Percent Mortality, Observed, Cmpd A” value in data set [1] is 5%; in data set [2], 42%.
On to `COC(=O)N(C(=O)N1CO[C@@]2(C(=O)OC)Cc3cc(Cl)ccc3C2=N1)c1ccc(OC(F)(F)F)cc1` [indoxacarb], for which the “Percent Mortality, Observed, Cmpd A” value in data set [1] worked out at 32%; in data set [2] it was 21%. Also, the entries for the “Plant Protection, Observed, Cmpd A” value in data set [3] and in data set [4] were 40 and 23, respectively.
On to `CNC(=O)ON=C(C)SC` [methomyl], for which the “Percent Mortality, Observed, Cmpd A” value in data set [1] was 28%; in data set [2] it was 80%.
`COc1cccc(C(=O)NN(C(=O)c2cc(C)cc(C)c2)C(C)(C)C)c1C` [methoxyfenozide]: the “Percent Mortality, Observed, Cmpd A” value in data set [1] amounted to 16%; in data set [2], 33%.
Taken in the same sequence, the figures for `O=C(NC(=O)c1c(F)cccc1F)Nc1ccc(OC(F)(F)C(F)OC(F)(F)F)c(Cl)c1` (centres unmarked) [novaluron] were 7% and 51%.
Taken in the same sequence, the figures for `CNC(=O)O/N=C(\SC)C(=O)N(C)C` [oxamyl] were 23% and 32%.
Taken in the same sequence, the figures for `CC1=NNC(=O)N(/N=C/c2cccnc2)C1` [pymetrozine] were 28% and 76%.
Turning to `FC(F)(F)c1ccc(OCCCOc2c(Cl)cc(OCC=C(Cl)Cl)cc2Cl)nc1` [pyridalyl], the “Percent Mortality, Observed, Cmpd A” value in data set [1] is given as 13%; in data set [2], 62%.
`CC(COc1ccc(Oc2ccccc2)cc1)Oc1ccccn1` (centres unmarked) [pyriproxifen]: the “Percent Mortality, Observed, Cmpd A” value in data set [1] was 10%; in data set [2] it was 20%. Moreover, the “Plant Protection, Observed, Cmpd A” value in data set [3] was 0; in data set [4], 7.
Consider `CCOC(=O)OC1=C(c2cc(C)ccc2C)C(=O)N[C@]12CC[C@@H](OC)CC2` [spirotetramat], for which the “Percent Mortality, Observed, Cmpd A” value came out at 8% in data set [1] and 65% in data set [2].
Taken in the same sequence, the figures for `N#C/N=C1\SCCN1Cc1ccc(Cl)nc1` [thiacloprid] were 12% and 60%.
In the case of `CN1COCN(Cc2cnc(Cl)s2)/C1=N\[N+](=O)[O-]` [thiamethoxam], the figures for the “Percent Mortality, Observed, Cmpd A” value in data set [1] and in data set [2] were 40% and 29%, respectively.
Taken in the same sequence, the figures for `CS/C(C)=N\OC(=O)N(C)SN(C)C(=O)O/N=C(\C)SC` [thiodicarb] were 25% and 64%.
Taken in the same sequence, the figures for `CCc1nn(C)c(C(=O)NCc2ccc(Oc3ccc(C)cc3)cc2)c1Cl` [tolfenpyrad] were 77% and 98%.
For abamectin, the “Percent Mortality, Observed, Cmpd A” value in data set [1] is 91%; in data set [2] it was 90%. For the same molecule, the figures for the “Plant Protection, Observed, Cmpd A” value in data set [3] and in data set [4] were 50 and 20, respectively.
Taken in the same sequence, the figures for spinetoram were 10%, 58%, 40 and 27.
